# From patent EP4806891A1 (Kangbaida (Sichuan) Biotechnology Co., Ltd., priority 2023, dated 2025)
# Biological target: T1, HEK-Blue-hTLR9 cells (Homo sapiens, UniProt Q9NR96)
# T1 construct: expressed in transfected cells; host or cells: HEK-Blue-hTLR9 cells (HEK293-derived reporter line)
# T1 sequence (Q9NR96 26-1032): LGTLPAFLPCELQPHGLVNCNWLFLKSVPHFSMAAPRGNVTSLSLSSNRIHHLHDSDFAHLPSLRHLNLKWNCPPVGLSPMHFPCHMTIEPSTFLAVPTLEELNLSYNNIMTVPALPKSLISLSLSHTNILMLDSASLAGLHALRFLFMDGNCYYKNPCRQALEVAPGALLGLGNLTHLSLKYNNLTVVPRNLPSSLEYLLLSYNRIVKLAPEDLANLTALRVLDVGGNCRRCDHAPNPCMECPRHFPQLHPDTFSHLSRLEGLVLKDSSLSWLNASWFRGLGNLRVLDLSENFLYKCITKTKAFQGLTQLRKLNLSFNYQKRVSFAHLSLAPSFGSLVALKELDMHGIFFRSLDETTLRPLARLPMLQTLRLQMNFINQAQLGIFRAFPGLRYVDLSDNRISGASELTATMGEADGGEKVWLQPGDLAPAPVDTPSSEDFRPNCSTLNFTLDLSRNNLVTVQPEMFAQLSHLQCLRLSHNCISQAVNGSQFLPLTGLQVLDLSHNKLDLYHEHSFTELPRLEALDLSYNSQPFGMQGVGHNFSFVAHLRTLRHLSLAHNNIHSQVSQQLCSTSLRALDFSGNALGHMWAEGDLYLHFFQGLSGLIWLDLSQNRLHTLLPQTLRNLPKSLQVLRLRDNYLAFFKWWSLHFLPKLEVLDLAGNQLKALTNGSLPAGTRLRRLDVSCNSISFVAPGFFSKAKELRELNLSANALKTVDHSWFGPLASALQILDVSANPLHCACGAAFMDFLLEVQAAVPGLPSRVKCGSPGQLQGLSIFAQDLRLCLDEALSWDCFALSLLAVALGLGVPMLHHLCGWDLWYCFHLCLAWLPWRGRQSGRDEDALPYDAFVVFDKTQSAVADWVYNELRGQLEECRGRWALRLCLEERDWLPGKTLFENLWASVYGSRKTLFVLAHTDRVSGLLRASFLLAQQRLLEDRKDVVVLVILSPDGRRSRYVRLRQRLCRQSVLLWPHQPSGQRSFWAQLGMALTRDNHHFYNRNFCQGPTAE
# Assay: HEK-Blue-hTLR9 cell inhibition assay
# Format: cell-based
# Settings: ODN2006 1 µM, 16 h, OD 620 nm, read-out: TLR9 IC50
# Method: HEK-Blue-hTLR7/8/9 cell inhibition assay
# 1. HEK-Blue-hTLR7/8 cells (1 × 10^4 cells/well) and HEK-Blue-hTLR9 cells (1.5 × 10^4 cells/well) were seeded in a 384-well cell culture plate, with a volume of 30 µL per well. The plate was incubated at 37°C in a 5% CO2 incubator for 4 h. 2. The compound was prepared with DMSO and diluted in DMEM medium to 10 concentrations (1:3 dilution), with final concentrations of 10000, 3333.3, 1111.1, 370.4, 123.5, 41.2, 13.7, 4.6, 1.5, and 0.5 nM; R848 was prepared with DMSO and diluted in DMEM medium, with final concentrations of 0.8 µM (HEK-Blue-hTLR7) and 3 µM (HEK-Blue-hTLR8); ODN2006 was prepared with endotoxin-free water and diluted in DMEM medium, with a final concentration of 1 µM. 3. Cells treated with DMSO were used as the blank control group, while cells treated solely with Resiquimod (R848) were used as the positive control group for HEK-Blue-hTLR7/8, and cells treated solely with ODN2006 were used as the positive control group for HEK-Blue-hTLR9. Cells treated with the test compound together with R848 or ODN2006 were used as the test group. Two parallel wells were set for each group and were placed at 37°C in a 5% CO2 incubator for incubation. 4. After being incubated for 4 h, the 384-well plate of HEK-Blue-hTLR7/8 was taken out from the incubator, and R848 alone or both R848 and the diluted compound were separately added into each well. The plate was placed at 37°C in a 5% CO2 incubator for incubation for 16 h; the 384-well plate of HEK-Blue-hTLR9 was taken out from the incubator, and ODN2006 alone or both ODN2006 and the diluted compound were added separately to each well. The plate was incubated at 37°C in a 5% CO2 incubator for 16 h. 5. After being incubated for 16 h, the 384-well plate was removed from the incubator and centrifuged at 1000 rpm for 1 minute. The optical density value of each well at 620 nm was measured using a multifunctional microplate reader. 6. The cell inhibition rate was calculated as (1-(OD620 test group-OD620 blank group)/(OD620 positive group-OD620 blank group))×100%, and the half maximal inhibitory concentration (IC50) was calculated through curve fitting. Table 1: Activity of the compounds of the present disclosure in HEK-Blue-hTLR7/8/9 cellular assays
row,Structure (SMILES),IC50 [µM]
1,"N#Cc1ccc(N2C[C@]3(c4nnc(CC5CNC5)o4)C[C@]3(C(F)(F)F)C2)c2cccnc12 [Compound 35, 5-((1S,5R)-1-(5-(azetidin-3-ylmethyl)-1,3,4-oxadiazol-2-yl)-5-(trifluoromethyl)-3-azabicyclo[3.1.0]hexan-3-yl)quinoline-8-carbonitrile]",> 1
2,"CN1CCC(Cc2nnc([C@]34CN(c5ccc(C#N)c6ncccc56)C[C@@]3(C(F)(F)F)C4)n2C)CC1 [Compound 38, 5-((1S,5R)-1-(4-methyl-5-((1-methylpiperidin-4-yl)methyl)-4H-1,2,4-triazol-3-yl)-5-(trifluoromethyl)-3-azabicyclo[3.1.0]hexan-3-yl)quinoline-8-carbonitrile]",> 10
3,"CN1CC(c2nnc([C@]34CN(c5ccc(C#N)c6ncccc56)C[C@@]3(C(F)(F)F)C4)o2)C1 [Compound 39, 5-((1S,5R)-1-(5-(1-methylazetidin-3-yl)-1,3,4-oxadiazol-2-yl)-5-(trifluoromethyl)-3-azabicyclo[3.1.0]hexan-3-yl)quinoline-8-carbonitrile]",> 1
4,"CN(C)Cc1nnc([C@]23CN(c4ccc(C#N)c5ncccc45)C[C@@]2(C(F)(F)F)C3)o1 [Compound 42, 5-((1S,5R)-1-(5-((dimethylamino)methyl)-1,3,4-oxadiazol-2-yl)-5-(trifluoromethyl)-3-azabicyclo[3.1.0]hexan-3-yl)quinoline-8-carbonitrile]",> 10
5,"N#Cc1ccc(N2C[C@]3(c4nnc(CCN5CCOCC5)o4)C[C@]3(C(F)(F)F)C2)c2cccnc12 [Compound 43, 5-((1S,5R)-1-(5-(morpholinoethyl)-1,3,4-oxadiazol-2-yl)-5-(trifluoromethyl)-3-azabicyclo[3.1.0]hexan-3-yl)quinoline-8-carbonitrile]",> 10
6,"Cn1c(CN2CCCC2)nnc1[C@]12CN(c3ccc(C#N)c4ncccc34)C[C@@]1(C(F)(F)F)C2 [Compound 44, 5-((1S,5R)-1-(4-methyl-5-(pyrrolidin-1-ylmethyl)-4H-1,2,4-triazol-3-yl)-5-(trifluoromethyl)-3-azabicyclo[3.1.0]hexan-3-yl)quinoline-8-carbonitrile]",> 10
7,"N#Cc1ccc(N2C[C@]3(c4nnc(C5CNCC(F)C5)o4)C[C@]3(C(F)(F)F)C2)c2cccnc12 (stereo partly drawn) [Compound 45, 5-((1R,5S)-1-((difluoro-3-methyl)-12-fluoraneyl)-5-(5-(5-fluoropiperidin-3-yl)-1,3,4-oxadiazol-2-yl)-3-azabicyclo[3.1.0]hexan-3-yl)quinoline-8-carbonitrile]",> 10
8,"N#Cc1ccc(N2C[C@]3(c4nnc(C5(F)CCNC5)o4)C[C@]3(C(F)(F)F)C2)c2cccnc12 (stereo partly drawn) [Compound 46, 5-((1S,5R)-1-(5-(3-fluoropyrrolidin-3-yl)-1,3,4-oxadiazol-2-yl)-5-(trifluoromethyl)-3-azabicyclo[3.1.0]hexan-3-yl)quinoline-8-carbonitrile]",> 10
9,"CN1CCC(c2nnc([C@]34CN(c5ccc(C#N)c6ncccc56)C[C@@]3(C(F)(F)F)C4)o2)C(F)C1 (stereo partly drawn) [Compound 50, 5-((1S,5R)-1-(5-(3-fluoro-1-methylpiperidin-4-yl)-1,3,4-oxadiazol-2-yl)-5-(trifluoromethyl)-3-azabicyclo[3.1.0]hexan-3-yl)quinoline-8-carbonitrile]",> 1
10,"CN(C)CCc1nnc([C@]23CN(c4ccc(C#N)c5ncccc45)C[C@@]2(C(F)(F)F)C3)o1 [Compound 51, 5-((1S,5R)-1-(5-(2-(dimethylamino)ethyl)-1,3,4-oxadiazol-2-yl)-5-(trifluoromethyl)-3-azabicyclo[3.1.0]hexan-3-yl)quinoline-8-carbonitrile]",> 10

# Further lines, results first:
row,IC50 [µM],Structure (SMILES)
1,> 1,"CN1CC(Cc2nnc([C@]34CN(c5ccc(C#N)c6ncccc56)C[C@@]3(C(F)(F)F)C4)o2)C1 [Compound 36, 5-((1S,5R)-1-(5-((1-methylazetidin-3-yl)methyl)-1,3,4-oxadiazol-2-yl)-5-(trifluoromethyl)-3-azabicyclo[3.1.0]hexan-3-yl)quinoline-8-carbonitrile]"
2,> 1,"CN1CCC(Cc2nnc([C@]34CN(c5ccc(C#N)c6ncccc56)C[C@@]3(C(F)(F)F)C4)o2)CC1 [Compound 37, 5-((1S,5R)-1-(5-((1-methylpiperidin-4-yl)methyl)-1,3,4-oxadiazol-2-yl)-5-(trifluoromethyl)-3-azabicyclo[3.1.0]hexan-3-yl)quinoline-8-carbonitrile]"
3,> 10,"N#Cc1ccc(N2C[C@]3(c4nnc(CN5CCOCC5)o4)C[C@]3(C(F)(F)F)C2)c2cccnc12 [Compound 40, 5-((1S,5R)-1-(5-(morpholinomethyl)-1,3,4-oxadiazol-2-yl)-5-(trifluoromethyl)-3-azabicyclo[3.1.0]hexan-3-yl)quinoline-8-carbonitrile]"
4,> 10,"N#Cc1ccc(N2C[C@]3(c4nnc(CN5CCCC5)o4)C[C@]3(C(F)(F)F)C2)c2cccnc12 [Compound 41, 5-((1S,5R)-1-(5-(Pyrrolidin-1-ylmethyl)-1,3,4-oxadiazol-2-yl)-5-(trifluoromethyl)-3-azabicyclo[3.1.0]hexan-3-yl)quinoline-8-carbonitrile]"
5,> 10,"CN1CCC(F)(c2nnc([C@]34CN(c5ccc(C#N)c6ncccc56)C[C@@]3(C(F)(F)F)C4)o2)C1 (stereo partly drawn) [Compound 47, 5-((1S,5R)-1-(5-(3-fluoro-1-methylpyrrolidin-3-yl)-1,3,4-oxadiazol-2-yl)-5-(trifluoromethyl)-3-azabicyclo[3.1.0]hexan-3-yl)quinoline-8-carbonitrile]"
6,> 10,"CN1CC(F)(c2nnc([C@]34CN(c5ccc(C#N)c6ncccc56)C[C@@]3(C(F)(F)F)C4)o2)C1 [Compound 49, 5-((1S,5R)-1-(5-(3-fluoro-1-methylazetidin-3-yl)-1,3,4-oxadiazol-2-yl)-5-(trifluoromethyl)-3-azabicyclo[3.1.0]hexan-3-yl)quinoline-8-carbonitrile]"
7,< 1,"N#Cc1ccc(N2C[C@]3(c4nnc(C56CCC(N)(CC5)CC6)o4)C[C@]3(C(F)(F)F)C2)c2cccnc12 [Compound 52, 5-((1S,5R)-1-(5-(4-aminobicyclo[2.2.2]octan-1-yl)-1,3,4-oxadiazol-2-yl)-5-(trifluoromethyl)-3-azabicyclo[3.1.0]hexan-3-yl)quinoline-8-carbonitrile]"
8,> 1,"CN(C)C12CCC(c3nnc([C@]45CN(c6ccc(C#N)c7ncccc67)C[C@@]4(C(F)(F)F)C5)o3)(CC1)CC2 [Compound 53, 5-((1S,5R)-1-(5-(4-(dimethylamino)bicyclo[2.2.2]octan-1-yl)-1,3,4-oxadiazol-2-yl)-5-(trifluoromethyl)-3-azabicyclo[3.1.0]hexan-3-yl)quinoline-8-carbonitrile]"
9,> 1,"N#Cc1ccc(N2C[C@]3(c4nnc(C56CCC(NC(=O)[C@@H]7COCCN7)(CC5)CC6)o4)C[C@]3(C(F)(F)F)C2)c2cccnc12 [Compound 54, (S)-N-(4-(5-((1S,5R)-3-(8-cyanoquinolin-5-yl)-5-(trifluoromethyl)-3-azabicyclo[3.1.0]hexan-1-yl)-1,3,4-oxadiazol-2-yl)bicyclo[2.2.2]octan-1-yl)morpholine-3-carboxamide]"
